Results published in PubChem BioAssay (NCI).
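Growth conditions: 96-well plates. Treatment: test compound, 48 hours, 5 concentrations. Analysis: linear interpolation between bracketing concentrations; unreached endpoints set to highest concentration. Here, GI50 denotes the concentration required for 50% inhibition of growth. TGI denotes the concentration required for complete inhibition of growth.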

What was measured:
Test in all cases: NCI tumour cell line growth inhibition, 48 h
NCI-H226 lung = tested on: NCI-H226 lung
EKVX NSCLC = tested on: EKVX NSCLC
786-0 renal = tested on: 786-0 renal
TK-10 renal = tested on: TK-10 renal
MDA-MB-231 breast = tested on: MDA-MB-231 breast
SK-MEL-5 melanoma = tested on: SK-MEL-5 melanoma
OVCAR-3 ovarian = tested on: OVCAR-3 ovarian
CCRF-CEM leukemia = tested on: CCRF-CEM leukemia
SK-OV-3 ovarian = tested on: SK-OV-3 ovarian
HCT-116 colon = tested on: HCT-116 colon
U251 CNS = tested on: U251 CNS
DU-145 prostate = tested on: DU-145 prostate
COLO 205 colon = tested on: COLO 205 colon
SF-539 CNS = tested on: SF-539 CNS
LOX IMVI melanoma = tested on: LOX IMVI melanoma
SNB-75 CNS = tested on: SNB-75 CNS
OVCAR-4 ovarian = tested on: OVCAR-4 ovarian
OVCAR-5 ovarian = tested on: OVCAR-5 ovarian
SN12C renal = tested on: SN12C renal
HOP-62 NSCLC = tested on: HOP-62 NSCLC
MALME-3M melanoma = tested on: MALME-3M melanoma
OVCAR-8 ovarian = tested on: OVCAR-8 ovarian
NCI-H23 lung = tested on: NCI-H23 lung
RPMI-8226 leukemia = tested on: RPMI-8226 leukemia
HL-60(TB) leukemia = tested on: HL-60(TB) leukemia
SR leukemia = tested on: SR leukemia
MCF7 breast = tested on: MCF7 breast
HT29 colon = tested on: HT29 colon
SF-295 CNS = tested on: SF-295 CNS
UO-31 renal = tested on: UO-31 renal
SK-MEL-2 melanoma = tested on: SK-MEL-2 melanoma
RXF 393 renal = tested on: RXF 393 renal
KM12 colon = tested on: KM12 colon
NCI-H522 lung = tested on: NCI-H522 lung
T-47D breast = tested on: T-47D breast
M14 melanoma = tested on: M14 melanoma
A549 NSCLC = tested on: A549 NSCLC
IGROV1 ovarian = tested on: IGROV1 ovarian
HS 578T breast = tested on: HS 578T breast
K-562 leukemia = tested on: K-562 leukemia
MDA-MB-435 = tested on: MDA-MB-435
HOP-92 NSCLC = tested on: HOP-92 NSCLC
SK-MEL-28 melanoma = tested on: SK-MEL-28 melanoma
SNB-19 CNS = tested on: SNB-19 CNS
MOLT-4 leukemia = tested on: MOLT-4 leukemia
SW-620 colon = tested on: SW-620 colon
HCC-2998 colon = tested on: HCC-2998 colon
NCI/ADR-RES ovarian = tested on: NCI/ADR-RES ovarian
NCI-H460 lung = tested on: NCI-H460 lung
BT-549 breast = tested on: BT-549 breast
PC-3 prostate = tested on: PC-3 prostate
UACC-62 melanoma = tested on: UACC-62 melanoma
ACHN renal = tested on: ACHN renal
CAKI-1 renal = tested on: CAKI-1 renal
SF-268 CNS = tested on: SF-268 CNS
HCT-15 colon = tested on: HCT-15 colon
A498 renal = tested on: A498 renal

Compound: C#CCNC(=O)c1cccc2c1cc(C)n2-c1nc2c(c(NCc3ccccc3)n1)CCCC2
- GI50 (NCI-H226 lung): 17 nM
- TGI (NCI-H226 lung): 49.1 nM
- GI50 (EKVX NSCLC): 28 nM
- TGI (EKVX NSCLC): 112 nM
- GI50 (786-0 renal): 29.2 nM
- TGI (786-0 renal): 78.8 nM
- GI50 (TK-10 renal): 34.5 nM
- TGI (TK-10 renal): 111 nM
- GI50 (MDA-MB-231 breast): 21.6 nM
- TGI (MDA-MB-231 breast): 54.6 nM
- GI50 (SK-MEL-5 melanoma): 8.86 nM
- TGI (SK-MEL-5 melanoma): 23.5 nM
- GI50 (OVCAR-3 ovarian): 23.6 nM
- TGI (OVCAR-3 ovarian): 57 nM
- GI50 (CCRF-CEM leukemia): 235 nM
- TGI (CCRF-CEM leukemia): 945 nM
- GI50 (SK-OV-3 ovarian): 56 nM
- TGI (SK-OV-3 ovarian): 232 nM
- GI50 (HCT-116 colon): 10.9 nM
- TGI (HCT-116 colon): 37.8 nM
- GI50 (U251 CNS): 25.4 nM
- TGI (U251 CNS): 64.6 nM
- GI50 (DU-145 prostate): 29.8 nM
- TGI (DU-145 prostate): 108 nM
- GI50 (COLO 205 colon): 19.1 nM
- TGI (COLO 205 colon): 38.2 nM
- GI50 (SF-539 CNS): 24.5 nM
- TGI (SF-539 CNS): 70 nM
- GI50 (LOX IMVI melanoma): 10.4 nM
- TGI (LOX IMVI melanoma): 25.6 nM
- GI50 (SNB-75 CNS): 36.5 nM
- TGI (SNB-75 CNS): 87.2 nM
- GI50 (OVCAR-4 ovarian): 22 nM
- TGI (OVCAR-4 ovarian): 70.9 nM
- GI50 (OVCAR-5 ovarian): 46.1 nM
- TGI (OVCAR-5 ovarian): 154 nM
- GI50 (SN12C renal): 20.4 nM
- TGI (SN12C renal): 68.9 nM
- GI50 (HOP-62 NSCLC): 30.8 nM
- TGI (HOP-62 NSCLC): 114 nM
- GI50 (MALME-3M melanoma): 3.11 nM
- TGI (MALME-3M melanoma): 11.4 nM
- GI50 (OVCAR-8 ovarian): 31.2 nM
- TGI (OVCAR-8 ovarian): 363 nM
- GI50 (NCI-H23 lung): 19.5 nM
- TGI (NCI-H23 lung): 56.3 nM
- GI50 (RPMI-8226 leukemia): 10.7 nM
- TGI (RPMI-8226 leukemia): 53.7 nM
- GI50 (HL-60(TB) leukemia): 29 nM
- TGI (HL-60(TB) leukemia): 191 nM
- GI50 (SR leukemia): 15.6 nM
- TGI (SR leukemia): 165 nM
- GI50 (MCF7 breast): 15.1 nM
- TGI (MCF7 breast): 142 nM
- GI50 (HT29 colon): 30 nM
- TGI (HT29 colon): 92.4 nM
- GI50 (SF-295 CNS): 17.5 nM
- TGI (SF-295 CNS): 41.8 nM
- GI50 (UO-31 renal): 24.2 nM
- TGI (UO-31 renal): 67.8 nM
- GI50 (SK-MEL-2 melanoma): 23 nM
- TGI (SK-MEL-2 melanoma): 62.7 nM
- GI50 (RXF 393 renal): 12.2 nM
- TGI (RXF 393 renal): 40.6 nM
- GI50 (KM12 colon): 23.1 nM
- TGI (KM12 colon): 65 nM
- GI50 (NCI-H522 lung): 25.1 nM
- TGI (NCI-H522 lung): 80.8 nM
- GI50 (T-47D breast): 28.3 nM
- TGI (T-47D breast): 117 nM
- GI50 (M14 melanoma): 19.5 nM
- TGI (M14 melanoma): 43.9 nM
- GI50 (A549 NSCLC): 38.1 nM
- TGI (A549 NSCLC): 124 nM
- GI50 (IGROV1 ovarian): 27.6 nM
- TGI (IGROV1 ovarian): 102 nM
- GI50 (HS 578T breast): 32.1 nM
- TGI (HS 578T breast): 954 nM
- GI50 (K-562 leukemia): 17.9 nM
- GI50 (MDA-MB-435): 23.5 nM
- TGI (MDA-MB-435): 65.6 nM
- GI50 (HOP-92 NSCLC): 23.9 nM
- TGI (HOP-92 NSCLC): 66.9 nM
- GI50 (SK-MEL-28 melanoma): 35 nM
- TGI (SK-MEL-28 melanoma): 123 nM
- GI50 (SNB-19 CNS): 36.2 nM
- TGI (SNB-19 CNS): 126 nM
- GI50 (MOLT-4 leukemia): 22.9 nM
- TGI (MOLT-4 leukemia): 75 nM
- GI50 (SW-620 colon): 28.9 nM
- TGI (SW-620 colon): 142 nM
- GI50 (HCC-2998 colon): 16.4 nM
- TGI (HCC-2998 colon): 33.1 nM
- GI50 (NCI/ADR-RES ovarian): 28.1 nM
- TGI (NCI/ADR-RES ovarian): 101 nM
- GI50 (NCI-H460 lung): 23.3 nM
- TGI (NCI-H460 lung): 72.3 nM
- GI50 (BT-549 breast): 26.5 nM
- TGI (BT-549 breast): 64.3 nM
- GI50 (PC-3 prostate): 24 nM
- TGI (PC-3 prostate): 71.7 nM
- GI50 (UACC-62 melanoma): 15.8 nM
- TGI (UACC-62 melanoma): 35.9 nM
- GI50 (ACHN renal): 25.5 nM
- TGI (ACHN renal): 110 nM
- GI50 (CAKI-1 renal): 28.9 nM
- TGI (CAKI-1 renal): 176 nM
- GI50 (SF-268 CNS): 25.7 nM
- TGI (SF-268 CNS): 77.1 nM
- GI50 (HCT-15 colon): 19.7 nM
- TGI (HCT-15 colon): 47.4 nM
- GI50 (A498 renal): 21.8 nM
- TGI (A498 renal): 59.1 nM
